Assay results: patent US11725015B2, “Macrocyclic compound and uses thereof” (President and Fellows of Harvard College, priority 2017, dated 2023)

Columns and labels:
[1] = test system: human breast cancer cell line MDA-MB231; assay: MDA-MB231 growth inhibition assay; assay type: cell-based; details: 3 days incubation, CellTiter-Glo
Protocol: In this assay, the growth inhibitory activity of test compounds in a human breast cancer cell line MDA-MB231 was measured. MDA-MB231 cells were maintained in Dulbecco's Modified Eagle's medium (Wako Pure Chemical Industries, Ltd., 044-29765) medium containing 10% fetal bovine serum (FBS: Nichirei, 12D168), and penicillin and streptomycin in a 5% CO2 incubator (37° C.). To each well of a 96 well plate (Becton, Dickinson and Company, 353219), 75 μL of MDA-MB231 cell suspension adjusted to a concentration of 4×10^4 cells/mL with the culture medium was added, and the cells were incubated overnight in a 5% CO2 incubator (37° C.). On the next day, 25 μL of Compound (1) or Halichondrin B in three-fold dilution series suspended in the culture medium was added to each well, and the resultant was incubated for 3 days in a 5% CO2 incubator (37° C.). Then, cell viability was determined by CellTiter-Glo® Luminescent Cell Viability Assay (Promega) with EnVision 2103 Multilabel Reader (Perkin-Elmer, Wellesley, Mass.). Value of the wells containing cells without adding the test compounds was defined as 100% and the value of the wells containing no cells was defined as 0%. The concentration of the test compound necessary for inhibiting the cell growth by 50% (i.e., an IC50 value) was calculated, and shown in Table 2.

[2] = test system: HSC-2-Luc orthotopic transplantation (tongue); assay: HSC-2 orthotopic transplantation mouse model; assay type: in vivo, mice
[3] = test system: OE33 (human adenocarcinoma of the esophagus); assay: In vitro antiproliferative activity, OE33; assay type: cell-based; details: OE33, 72 hours
Protocol: (§1) The in vitro antiproliferative assays for Compound (1) were conducted using a small panel of cancer cell lines including human squamous cell carcinoma of the esophagus (OE21, TE-8), human adenocarcinoma of the esophagus (OE33), and human uterine sarcoma (MES-SA, MES-SA-Dx5-Rx1). All cell lines were cultured in RPMI-1640 medium containing 10% FBS, and penicillin-streptomycin (culture medium), in a 5% CO2 incubator (37° C.). To each well of a 96 well plate (Becton, Dickinson and Company, 353219), 75 μL of cell suspension adjusted to a concentration of 4×10^4 cells/mL with the culture medium was added, and the cells were incubated overnight in a 5% CO2 incubator (37° C.). On the next day, 25 μL of Compound (1) in three-fold dilution series suspended in the culture medium was added to each well, and the resultant was incubated for 72 hours in a 5% CO2 incubator (37° C.). Then, cell viability was determined by CellTiter-Glo® Luminescent Cell Viability Assay (Promega) with 2013 EnVision™ Multilabel Reader (Perkin-Elmer, Wellesley, Mass.). Value of the wells containing cells without adding the test compounds was defined as 100% and the value of the wells containing no cells was defined as 0%. […] The P-gp susceptibility was calculated as the ratio of the IC50 value in MES-SA-Dx5-Rx1 cells, which overexpress P-gp, to the IC50 value in MES-SA cells.

[4] = test system: MES-SA (human uterine sarcoma); assay: In vitro antiproliferative activity, MES-SA; assay type: cell-based; details: 72 hours
Protocol: as §1

[5] = test system: CD31-positive vessel in the FaDu subcutaneous model; assay: Effect on CD31-positive vessel in the FaDu subcutaneous model in mice (Test Example 18); assay type: in vivo; details: five days after
Protocol: A human squamous cell carcinoma of the head and neck (SCCHN) cell line FaDu, which had been cultured in an RPMI-1640 medium containing 10% FBS, and penicillin-streptomycin (culture medium), was adjusted to a concentration of 5×10^7 cells/mL with culture medium to prepare a cell suspension. The cell suspension was inoculated in a volume of 100 μL into a subcutaneous part of a right flank of nude mice, 6 weeks of ages (CAnN.Cg-Foxnlnu/CrlCrlj, female, Charles River Laboratories Japan, Inc.). Ten days after cell inoculation, the mice were grouped such that averages of the tumor volumes were substantially equal among the groups. The experiment was conducted on groups each consisting of 6 mice. Each test compound was dissolved in DMSO and a solution was stored in the freezer before use. Immediately before the administration, the stock solution was diluted with saline. The test compound in saline was intravenously administered at 20 μg/kg, […]. Five days after the single administration, tumor samples were collected and fixed with IHC Zinc Fixative (BD Pharmingen) at 4° C. for 24 hours. Paraffin-embedded tissues were sectioned (3 μm), mounted on positively charged slides, and air-dried. Immunohistochemical staining of CD31 was conducted using Ventana autostainer model Discover XT (Roche Diagnostics) according to the manufacture's protocol. Sections were deparaffinized, conditioned and the antigens were retrieved with CC1 (Ventana Medical Systems). […] The number of blood vessels in the whole tumor was quantified by counting the CD31-positive objects using inform 2 software (PerkinElmer Inc.) Area of the tumor region was measured by assessing the hematoxylin-staining area using inform 2 software (PerkinElmer Inc.) The number of blood vessels was normalized by the area of the tumor region. […] The ratios of blood vessel number in the test compound-dosing groups compared to non-treat group were calculated with the below formula: Tumor vessel ratio=blood vessel number of the test compound-dosing group/blood vessel number of the non-treat group)

`C=C1C[C@@H]2CC[C@@]34C[C@H]5O[C@H]6[C@@H](O3)[C@H]3O[C@H](CC[C@@H]3O[C@H]6C5O4)CC(=O)O[C@@H]3[C@@H](C)[C@@H]4O[C@@H]5C[C@]6(C[C@@H]7O[C@]8(C[C@H](C)[C@@H]9O[C@H](CN)[C@H](O)C[C@@H]9O8)C[C@H](C)[C@@H]7O6)O[C@@H]5C[C@@H]4O[C@H]3C[C@H]3O[C@@H](CC[C@@H]1O2)C[C@@H](C)C3=C` [Compound (1)] was tested, and the IC50 [1] was 0.109 nM, the “survived mice on Day 100” value ([2]; Compound (1)+CTX combination group, n=16) was 10 and the bioluminescence signal ([2]; with cetuximab, after Day 14) was “clearly reduced the bioluminescence signal in all mice”. The antiproliferative activity [3] was “potent antiproliferative agent”, the antiproliferative activity [4] was “potent antiproliferative agent” and the “tumor blood vessel number” value ([5]; single administration 20 μg/kg) was “increased the tumor blood vessel number”. The “tumor blood vessel number” value ([5]; single administration 60 μg/kg) was “increased the tumor blood vessel number” and the “tumor blood vessel number” value ([5]; single administration 180 μg/kg) was “increased the tumor blood vessel number”.
